Data taken from paper PMC11388056 (Clinical and Translational Science, 2024).
Where two headings read alike, the source gives them in different places. Marks after values point to notes of the source that are not given here.

Columns and labels:
[1] = for digoxin CL/F: arithmetic mean ± SD
[2] = clinical; conditions: human, plasma, oral, geometric mean (geometric CV%), n = 20
[3] = Safety evaluation; assay type: in vivo, human (healthy adults); conditions: part 1, treatments pooled
[4] = for futibatinib CL/F: arithmetic mean ± SD
[5] = cited from earlier work
[6] = cited from earlier work; remark: listed apart in the source
[7] = system: P‐glycoprotein (P‐gp); conditions: in vitro; cited from earlier work
[8] = clinical; conditions: human, plasma, 20 mg
[9] = participants with advanced solid tumors; cited from earlier work
[10] = Safety evaluation; assay type: in vivo, human (healthy adults); conditions: part 2; of a total of 27 TEAEs
[11] = with itraconazole; cited from earlier work
[12] = Phase I DDI study part 1: plasma rosuvastatin PK with and without futibatinib; assay type: in vivo, human (healthy adults)
[13] = digoxin + rosuvastatin, without futibatinib, median (min, max)
[14] = quinidine coadministration vs. futibatinib alone
[15] = after coadministration with futibatinib vs. rosuvastatin plus digoxin
[16] = digoxin + rosuvastatin, without futibatinib, arithmetic mean ± SD, 18 participants

## C[C@H]1O[C@@H](O[C@H]2[C@@H](O)C[C@H](O[C@H]3[C@@H](O)C[C@H](O[C@H]4CC[C@@]5(C)[C@H](CC[C@@H]6[C@@H]5C[C@@H](O)[C@]5(C)[C@@H](C7=CC(=O)OC7)CC[C@]65O)C4)O[C@@H]3C)O[C@@H]2C)C[C@H](O)[C@@H]1O [digoxin]
[1]; digoxin + rosuvastatin with futibatinib, 19 participants
  digoxin CL/F: 14.6 ± 5.4 ^a L/h
[1]; digoxin + rosuvastatin, without futibatinib
  digoxin CL/F: 14.6 ± 4.1 L/h
[1]; [13]
  digoxin T max: 1.0 (0.67, 2.0) h
[1]; digoxin administered with futibatinib vs. without
  mean digoxin renal clearance lower: 13%
[1]; following digoxin, rosuvastatin and futibatinib vs. without futibatinib
  delay of median digoxin T max: ~ 0.3 h
[1]; with and without futibatinib
  difference in digoxin C max and AUC: < 20%
[1]; with vs. without futibatinib
  digoxin AUC0–120 GMR (90% CI): 103.9 (94.5–114.2) %
  digoxin AUCinf GMR (90% CI): 100.2 (90.8–110.5) %
  digoxin C max GMR (90% CI): 95.1 (81.1–111.5) %
  digoxin CLr GMR (90% CI): 87.1 (80.8–93.9) %
[2]; digoxin AUCinf, digoxin + rosuvastatin, without futibatinib
  AUC(0-inf): 17.7 ng·h/mL
[2]; digoxin C max, digoxin + rosuvastatin with futibatinib 20 mg once daily
  Cmax: 0.953 ng/mL

## C=CC(=O)N1CC[C@H](n2nc(C#Cc3cc(OC)cc(OC)c3)c3c(N)ncnc32)C1 [futibatinib]
[3]
  TEAE diarrhea: 80%
  TEAE increased blood phosphate: 75%
[4]; futibatinib + quinidine, n = 15
  futibatinib CL/F: 34.3 ± 13.2 L/h
[4]; futibatinib + quinidine, geometric mean (geometric CV%), n = 15
  futibatinib AUCinf: 627.0 (41.6) ng*h/mL
[4]; futibatinib alone, n = 24
  futibatinib CL/F: 43.1 ± 40.8 L/h
[4]; [14]
  increase in futibatinib C max and AUC: < 20%
  magnitude of increase in futibatinib AUC0–24: 16%
  magnitude of increase in futibatinib AUCinf (exposure): 17%
  magnitude of increase in futibatinib C max: 8%
[4]; with vs. without quinidine
  futibatinib AUC0–24 GMR (90% CI): 116.4 (95.4–142.1) %
  futibatinib AUCinf GMR (90% CI): 117.0 (96.0–142.7) %
  futibatinib C max GMR (90% CI): 108.0 (90.9–128.3) %
[5]; administered with or without lansoprazole
  difference in futibatinib exposure: no significant differences
[5]; fed versus fasted conditions, healthy participants
  futibatinib bioavailability lower: 11.2%
[6]; coadministered with itraconazole (dual P‐gp and CYP3A inhibitor)
  futibatinib exposure increased: 41%–51%
[6]; coadministered with rifampin (dual P‐gp and CYP3A inducer)
  futibatinib exposure decreased: 53%–64%
[7]
  substrate of P‐gp: substrate
[8]; oral
  Vd/F: 132 ± 72.2 L
  half-life: 2.5 ± 0.83 h
[8]; oral, futibatinib AUCinf, futibatinib alone, geometric mean (geometric CV%), n = 24
  AUC(0-inf): 582 ng·h/mL
[8]; po
  AUC(0-t): 580 ng·h/mL
[9]
  terminal elimination half‐life (t ½): approximately 3 h

## C=C[C@H]1C[N@@]2CC[C@H]1C[C@@H]2[C@@H](O)c1ccnc2ccc(OC)cc12 [quinidine]
[10]
  TEAEs considered by the investigator to be related to the drug: 22 events

## CCN1C(=O)N(c2c(F)c(OC)cc(OC)c2F)Cc2cnc3[nH]c(CN4CCOCC4)cc3c21 [pemigatinib]
[11]
  increase in pemigatinib AUC: 88%
  increase in pemigatinib C max: 17%

## CC(C)c1nc(N(C)S(C)(=O)=O)nc(-c2ccc(F)cc2)c1/C=C/[C@@H](O)C[C@@H](O)CC(=O)O [rosuvastatin]
[12]; [15]
  geometric mean rosuvastatin AUCs higher: ≤ 18.8%
  geometric mean rosuvastatin C max higher: 10.2%
[12]; digoxin + rosuvastatin with futibatinib, arithmetic mean ± SD
  rosuvastatin CL/F: 207.2 ± 105.7 L/h
[12]; [16]
  rosuvastatin CL/F: 247.3 ± 167.2 ^c L/h
  rosuvastatin t ½: 16.7 ± 8.5 ^c h
[12]; [13]
  rosuvastatin T max: 4.0 (1.0, 6.1) h
[12]; human, plasma, oral, rosuvastatin AUCinf, digoxin + rosuvastatin, without futibatinib, geometric mean (geometric CV%), 18 participants
  AUC(0-inf): 46.9 ng·h/mL
[12]; with vs. without futibatinib
  increase in rosuvastatin C max and AUC: < 20%
  rosuvastatin AUC0–72 GMR (90% CI): 118.8 (107.9–130.7) %
  rosuvastatin AUCinf GMR (90% CI): 113.5 (102.6–125.5) %
  rosuvastatin C max GMR (90% CI): 110.2 (97.3–124.8) %
